Test results taken from US20230265151A1, “GIP/GLP1 CO-AGONIST COMPOUNDS” (priority 2020, published 2023).
Like-named read-outs stand apart in the source and are kept apart here. *1 amine or outer side, *2 acyl side, *3 side chain or, on linkers, in order; H or OH if unused. Where a SMILES comes first, the peptide text is derived from it. Side-chain parts run from the residue outwards. [ ]: non-standard residue; d: D form. The star is where a group is joined. Decanoyl(10-(4-HOOC-PhO)) = O=C(O)c1ccc(OCCCCCCCCCC(=O)*)cc1; αMePhe(2-F) = C[C@](N)(Cc1ccccc1F)C(=O)O; γGlu = O=C(O)[C@H](CCC(=O)[*:2])N[*:1]; C14 diacid = O=C(O)CCCCCCCCCCCCC(=O)*; εLys = N[C@@H](CCCCN[*:1])C(=O)[*:2]; αMeY = C[C@](N)(Cc1ccc(O)cc1)C(=O)O; 4Pal = N[C@@H](Cc1ccncc1)C(=O)O; αMeL = CC(C)C[C@](C)(N)C(=O)O; Orn = NCCC[C@H](N)C(=O)O; AEEA = NCCOCCOCC(=O)O; Aib = CC(C)(N)C(=O)O

Key:
Assay type in all cases: cell-based
hGLP-1R = hGLP-1R (Homo sapiens, UniProt P43220); experiment: Functional cAMP formation (HTRF) in HEK-293 clonal cells expressing hGLP-1R, 0.1% bovine casein, without or with 1.0% human serum albumin; parameters: expressed in transfected cells; details: for EC50: geometric mean
Chain of hGLP-1R (P43220 24-463): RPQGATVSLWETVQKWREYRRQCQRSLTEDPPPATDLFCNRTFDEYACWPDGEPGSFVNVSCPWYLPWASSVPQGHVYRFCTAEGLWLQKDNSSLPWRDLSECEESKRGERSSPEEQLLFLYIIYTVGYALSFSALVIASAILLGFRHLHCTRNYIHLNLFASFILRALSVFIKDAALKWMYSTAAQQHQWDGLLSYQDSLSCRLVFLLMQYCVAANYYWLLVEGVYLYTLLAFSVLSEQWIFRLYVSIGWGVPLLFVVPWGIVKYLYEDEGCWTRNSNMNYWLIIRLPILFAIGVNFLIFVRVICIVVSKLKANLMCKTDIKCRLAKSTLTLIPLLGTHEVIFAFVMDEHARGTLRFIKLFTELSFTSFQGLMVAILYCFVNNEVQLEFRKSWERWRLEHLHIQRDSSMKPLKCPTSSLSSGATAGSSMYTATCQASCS
Summary of the method: (§1)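 Readings of the HTRF 665/620 nm ratio, which falls as cAMP rises, were converted to nM cAMP using a standard curve after 30 min peptide exposure at 37° C.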

hGCGR = target: T1, hGCGR (Homo sapiens, UniProt P47871); experiment: Functional cAMP formation (HTRF) in HEK-293 clonal cells expressing hGCGR, 0.1% bovine casein, without or with 1.0% human serum albumin
T1 construct: expressed in transfected cells
T1 sequence (P47871 26-477): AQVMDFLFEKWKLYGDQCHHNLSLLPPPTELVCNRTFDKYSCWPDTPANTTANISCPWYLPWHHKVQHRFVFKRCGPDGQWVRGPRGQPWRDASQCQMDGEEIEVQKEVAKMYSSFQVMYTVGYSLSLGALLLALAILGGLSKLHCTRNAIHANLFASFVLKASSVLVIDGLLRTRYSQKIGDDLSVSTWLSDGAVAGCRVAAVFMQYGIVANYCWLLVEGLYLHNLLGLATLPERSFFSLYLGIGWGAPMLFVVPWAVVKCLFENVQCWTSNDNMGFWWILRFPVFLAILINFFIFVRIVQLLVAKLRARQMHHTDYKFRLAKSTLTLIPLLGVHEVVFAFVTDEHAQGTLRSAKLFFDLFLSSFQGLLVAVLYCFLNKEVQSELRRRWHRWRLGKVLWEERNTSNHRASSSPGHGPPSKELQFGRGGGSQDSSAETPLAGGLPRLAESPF
Summary of the method: as §1

hGIPR = target: T2, hGIPR (Homo sapiens, UniProt P48546); experiment: Functional cAMP formation (HTRF) in HEK-293 clonal cells expressing hGIPR, 0.1% bovine casein, without or with 1.0% human serum albumin; details: for EC50: geometric mean
T2 construct: expressed in transfected cells
T2 sequence (P48546 22-466): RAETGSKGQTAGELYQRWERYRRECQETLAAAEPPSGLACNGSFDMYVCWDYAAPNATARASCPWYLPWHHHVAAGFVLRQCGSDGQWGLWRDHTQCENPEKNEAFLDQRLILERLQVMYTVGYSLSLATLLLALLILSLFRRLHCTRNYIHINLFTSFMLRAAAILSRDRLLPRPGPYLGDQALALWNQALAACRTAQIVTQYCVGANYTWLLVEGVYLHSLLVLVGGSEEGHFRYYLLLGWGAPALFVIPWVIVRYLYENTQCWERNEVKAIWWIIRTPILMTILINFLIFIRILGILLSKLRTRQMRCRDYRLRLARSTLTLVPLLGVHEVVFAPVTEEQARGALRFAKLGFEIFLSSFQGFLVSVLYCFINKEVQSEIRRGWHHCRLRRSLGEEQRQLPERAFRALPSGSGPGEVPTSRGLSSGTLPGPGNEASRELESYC
Summary of the method: as §1

[1] = cAMP, incubated at 37° C., 0.1% bovine casein (no human serum albumin), read-out: hGLP-1R EC50, nM (SEM, n)
[2] = cAMP, incubated at 37° C., 0.1% bovine casein (no human serum albumin), geometric mean, read-out: hGCGR EC50, nM (SEM, n)
[3] = cAMP, incubated at 37° C., 0.1% bovine casein (no human serum albumin), read-out: hGIPR EC50, nM (SEM, n)
[4] = hGLP-1R EC50, nM (SEM, n), cAMP, 37° C., 0.1% bovine casein (no human serum albumin)
[5] = hGCGR EC50, nM (SEM, n), cAMP, 37° C., 0.1% bovine casein (no human serum albumin), geometric mean
[6] = hGIPR EC50, nM (SEM, n), cAMP, 37° C., 0.1% bovine casein (no human serum albumin)

CC[C@H](C)[C@H](NC(=O)[C@H](CC(C)C)NC(=O)[C@](C)(Cc1ccc(O)cc1)NC(=O)[C@@H](CCC(=O)O)NC(=O)[C@@H](NC(=O)[C@H](Cc1ccccc1)NC(=O)[C@H](CCC(=O)O)NC(=O)C(C)(C)NC(=O)[C@H](CCC(N)=O)NC(=O)[C@H](C)NC(=O)[C@H](CCCCNC(=O)COCCOCCNC(=O)COCCOCCNC(=O)CC[C@H](NC(=O)CCCCCCCCCCCCC(=O)O)C(=O)O)NC(=O)[C@H](CCCN)NC(=O)[C@H](CC(=O)O)NC(=O)[C@H](CC(C)C)NC(=O)[C@](C)(CC(C)C)NC(=O)[C@@H](NC(=O)[C@H](CO)NC(=O)[C@H](Cc1cscn1)NC(=O)[C@H](CC(=O)O)NC(=O)[C@H](CO)NC(=O)[C@@H](NC(=O)[C@](C)(Cc1ccccc1F)NC(=O)[C@@H](NC(=O)CNC(=O)[C@H](CCC(=O)O)NC(=O)C(C)(C)NC(=O)[C@@H](N)Cc1ccc(O)cc1)[C@@H](C)O)[C@@H](C)O)[C@@H](C)CC)[C@@H](C)CC)C(=O)N[C@@H](CCC(=O)O)C(=O)NCC(=O)NCC(=O)N[C@@H](CCCCNC(=O)COCCOCCNC(=O)COCCOCCNC(=O)CC[C@H](NC(=O)CCCCCCCCCCCCC(=O)O)C(=O)O)C(=O)N[C@@H](CO)C(=O)N[C@@H](CO)C(=O)NCC(=O)N[C@@H](C)C(=O)N1CCC[C@H]1C(=O)N1CCC[C@H]1C(=O)N1CCC[C@H]1C(=O)N[C@@H](CO)C(N)=O [Example 144]
Emax (hGLP-1R; HEK293, percent of maximal response to GLP-1(7-36)NH2, 37° C., 0.1% bovine casein, arithmetic mean, read-out: hGLP-1R Emax, % ± SEM): 97%
EC50 (hGLP-1R; [1]): 3.47 nM
EC50 (hGCGR; [2]): > 9950 nM
Emax (hGIPR; HEK293, percent of maximal response to GIP(1-42)NH2, 37° C., 0.1% bovine casein, arithmetic mean, read-out: hGIPR Emax, % ± SEM): 90%
EC50 (hGIPR; [3]): 0.0193 nM

CCCC[C@H](NC(=O)[C@H](CC(=O)O)NC(=O)[C@H](CO)NC(=O)[C@@H](NC(=O)[C@](C)(Cc1ccccc1F)NC(=O)[C@@H](NC(=O)CNC(=O)[C@H](CCC(=O)O)NC(=O)C(C)(C)NC(=O)[C@@H](N)Cc1ccc(O)cc1)[C@@H](C)O)[C@@H](C)O)C(=O)N[C@@H](CO)C(=O)N[C@H](C(=O)N[C@@](C)(CC(C)C)C(=O)N[C@@H](CC(C)C)C(=O)N[C@@H](CC(=O)O)C(=O)N[C@@H](CCCN)C(=O)N[C@@H](CCCCNC(=O)COCCOCCNC(=O)COCCOCCNC(=O)CC[C@H](NC(=O)CCCCCCCCCOc1ccc(C(=O)O)cc1)C(=O)O)C(=O)N[C@@H](C)C(=O)N[C@@H](CCC(N)=O)C(=O)NC(C)(C)C(=O)N[C@@H](CCCCNC(=O)COCCOCCNC(=O)COCCOCCNC(=O)CC[C@H](NC(=O)CCCCCCCCCOc1ccc(C(=O)O)cc1)C(=O)O)C(=O)N[C@@H](Cc1ccccc1)C(=O)N[C@H](C(=O)N[C@H](CCC(=O)O)C(=O)N[C@@](C)(Cc1ccc(O)cc1)C(=O)N[C@@H](CC(C)C)C(=O)N[C@H](C(=O)N[C@@H](CCC(=O)O)C(=O)NCC(=O)NCC(=O)N1CCC[C@H]1C(=O)N[C@@H](CO)C(=O)N[C@@H](CO)C(=O)NCC(=O)N[C@@H](C)C(=O)N1CCC[C@H]1C(=O)N1CCC[C@H]1C(=O)N1CCC[C@H]1C(=O)N[C@@H](CO)C(N)=O)[C@@H](C)CC)[C@@H](C)CC)[C@@H](C)CC [Example 321]
EC50 (hGLP-1R; [4]): 0.295 nM
EC50 (hGCGR; hGCGR EC50, nM (SEM, n), 0.1% bovine casein and 1.0% human serum albumin, 37° C., geometric mean): > 9950 nM
EC50 (hGCGR; [5]): > 9950 nM
Emax (hGIPR; HEK293, read-out: hGIPR Emax, % ± SEM, 0.1% bovine casein and 1.0% human serum albumin, 37° C., percent of maximal response to GIP(1-42)NH2): 94.5%
EC50 (hGIPR; [6]): 0.0107 nM

CC[C@H](C)[C@H](NC(=O)[C@H](CCCN)NC(=O)[C@H](CC(=O)O)NC(=O)[C@H](CC(C)C)NC(=O)[C@](C)(CC(C)C)NC(=O)[C@@H](NC(=O)C(C)(C)NC(=O)[C@H](Cc1ccc(O)cc1)NC(=O)[C@H](CC(=O)O)NC(=O)[C@H](CO)NC(=O)[C@@H](NC(=O)[C@](C)(Cc1ccccc1F)NC(=O)[C@@H](NC(=O)CNC(=O)[C@H](CCC(=O)O)NC(=O)C(C)(C)NC(=O)[C@@H](N)Cc1ccc(O)cc1)[C@@H](C)O)[C@@H](C)O)[C@@H](C)CC)C(=O)N[C@@H](C)C(=O)N[C@@H](CCC(N)=O)C(=O)NC(C)(C)C(=O)N[C@@H](CCCCNC(=O)COCCOCCNC(=O)CC[C@H](NC(=O)CCCCCCCCCOc1ccc(C(=O)O)cc1)C(=O)O)C(=O)N[C@@H](Cc1ccccc1)C(=O)N[C@H](C(=O)N[C@H](CCC(=O)O)C(=O)N[C@@](C)(Cc1ccc(O)cc1)C(=O)N[C@@H](CC(C)C)C(=O)N[C@H](C(=O)N[C@@H](CCC(=O)O)C(=O)NCC(=O)NCC(=O)N1CCC[C@H]1C(=O)N[C@@H](CO)C(=O)N[C@@H](CO)C(=O)NCC(=O)N[C@@H](C)C(=O)N1CCC[C@H]1C(=O)N1CCC[C@H]1C(=O)N1CCC[C@H]1C(=O)N[C@@H](CO)C(=O)N[C@@H](CCCCNC(=O)COCCOCCNC(=O)CC[C@H](NC(=O)CCCCCCCCCOc1ccc(C(=O)O)cc1)C(=O)O)C(N)=O)[C@@H](C)CC)[C@@H](C)CC [Example 377] (H-Y[Aib]EGT[αMePhe(2-F)]TSDY[Aib]I[αMeL]LD[Orn]IAQ[Aib]K([AEEA-γGlu-Decanoyl(10-(4-HOOC-PhO))])FI[dE][αMeY]LIEGGPSSGAPPPSK([AEEA-γGlu-Decanoyl(10-(4-HOOC-PhO))])-NH2)
Emax (hGLP-1R; HEK293, read-out: hGLP-1R Emax, % ± SEM, cAMP, 37° C., 0.1% bovine casein and 1.0% human serum albumin, percent of maximal response to GLP-1(7-36)NH2): 110%
Emax (hGLP-1R; HEK293, read-out: hGLP-1R Emax, % ± SEM, cAMP, 37° C., 0.1% bovine casein, percent of maximal response to GLP-1(7-36)NH2, arithmetic mean): 100%
EC50 (hGLP-1R; [4]): 0.356 nM
EC50 (hGCGR; [5]): > 9950 nM
EC50 (hGCGR; hGCGR EC50, nM (SEM, n), cAMP, 37° C., 0.1% bovine casein and 1.0% human serum albumin, geometric mean (SEM, n)): > 9950 nM
Emax (hGIPR; HEK293, read-out: hGIPR Emax, % ± SEM, cAMP, 37° C., 0.1% bovine casein and 1.0% human serum albumin, percent of maximal response to GIP(1-42)NH2): 79.4%
Emax (hGIPR; HEK293, read-out: hGIPR Emax, % ± SEM, cAMP, 37° C., 0.1% bovine casein, percent of maximal response to GIP(1-42)NH2, arithmetic mean): 92.8%
EC50 (hGIPR; [6]): 0.0205 nM

CC[C@H](C)[C@H](NC(=O)[C@H](CC(C)C)NC(=O)[C@](C)(Cc1ccc(O)cc1)NC(=O)[C@@H](CCC(=O)O)NC(=O)[C@@H](NC(=O)[C@H](Cc1ccccc1)NC(=O)[C@H](CCC(=O)O)NC(=O)C(C)(C)NC(=O)[C@H](CCC(N)=O)NC(=O)[C@H](C)NC(=O)[C@H](CCCCNC(=O)[C@@H](N)CCCCNC(=O)[C@@H](N)CCCCNC(=O)CC[C@H](NC(=O)CCCCCCCCCCCCC(=O)O)C(=O)O)NC(=O)[C@H](CCCN)NC(=O)[C@H](CC(=O)O)NC(=O)[C@H](CC(C)C)NC(=O)[C@](C)(CC(C)C)NC(=O)[C@@H](NC(=O)[C@H](CO)NC(=O)[C@H](Cc1ccncc1)NC(=O)[C@H](CC(=O)O)NC(=O)[C@H](CO)NC(=O)[C@@H](NC(=O)[C@](C)(Cc1ccccc1F)NC(=O)[C@@H](NC(=O)CNC(=O)[C@H](CCC(=O)O)NC(=O)C(C)(C)NC(=O)[C@@H](N)Cc1ccc(O)cc1)[C@@H](C)O)[C@@H](C)O)[C@@H](C)CC)[C@@H](C)CC)C(=O)N[C@@H](CCC(=O)O)C(=O)NCC(=O)NCC(=O)N[C@@H](CCCCNC(=O)[C@@H](N)CCCCNC(=O)[C@@H](N)CCCCNC(=O)CC[C@H](NC(=O)CCCCCCCCCCCCC(=O)O)C(=O)O)C(N)=O [Example 187] (H-Y[Aib]EGT[αMePhe(2-F)]TSD[4Pal]SI[αMeL]LD[Orn]K([εLys-εLys-γGlu-C14 diacid])AQ[Aib]EFI[dE][αMeY]LIEGGK([εLys-εLys-γGlu-C14 diacid])-NH2; N-terminus assumed)
EC50 (hGLP-1R; 0.1% bovine casein and 1.0% human serum albumin, 37° C., read-out: hGLP-1R EC50, nM (SEM, n)): 18 nM
Emax (hGLP-1R; HEK293, 0.1% bovine casein and 1.0% human serum albumin, 37° C., percent of maximal response to GLP-1(7-36)NH2, read-out: hGLP-1R Emax, % ± SEM): 109%
EC50 (hGLP-1R; [1]): 0.386 nM
EC50 (hGCGR; 0.1% bovine casein and 1.0% human serum albumin, 37° C., geometric mean, read-out: hGCGR EC50, nM (SEM, n)): > 9950 nM
EC50 (hGCGR; [2]): > 9950 nM
EC50 (hGIPR; 0.1% bovine casein and 1.0% human serum albumin, 37° C., read-out: hGIPR EC50, nM (SEM, n)): 0.939 nM
Emax (hGIPR; HEK293, 0.1% bovine casein and 1.0% human serum albumin, 37° C., percent of maximal response to GIP(1-42)NH2, read-out: hGIPR Emax, % ± SEM): 79.3%
EC50 (hGIPR; [3]): 0.026 nM
